Activity calls are given as the source filed them.
Assays:
Escherichia coli = experiment: microbe, parasite or virus in culture
[1] = biological target: T1, Dual specificity protein phosphatase 6 (Rattus norvegicus, UniProt Q64346); format: functional
T1 sequence (Q64346 whole entry): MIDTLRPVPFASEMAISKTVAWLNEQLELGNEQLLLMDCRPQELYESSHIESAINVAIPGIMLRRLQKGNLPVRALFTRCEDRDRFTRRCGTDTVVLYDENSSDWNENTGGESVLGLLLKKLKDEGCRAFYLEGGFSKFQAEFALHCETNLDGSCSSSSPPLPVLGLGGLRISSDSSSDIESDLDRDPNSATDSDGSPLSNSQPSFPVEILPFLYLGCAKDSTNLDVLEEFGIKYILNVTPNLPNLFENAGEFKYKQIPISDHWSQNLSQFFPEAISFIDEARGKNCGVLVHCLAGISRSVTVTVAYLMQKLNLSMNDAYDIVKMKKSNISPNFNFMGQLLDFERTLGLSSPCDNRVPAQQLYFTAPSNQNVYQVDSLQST

[2] = biological target: Glyceraldehyde-3-phosphate dehydrogenase (Homo sapiens, UniProt P04406)
Glyceraldehyde-3-phosphate dehydrogenase, sequence (P04406 whole entry): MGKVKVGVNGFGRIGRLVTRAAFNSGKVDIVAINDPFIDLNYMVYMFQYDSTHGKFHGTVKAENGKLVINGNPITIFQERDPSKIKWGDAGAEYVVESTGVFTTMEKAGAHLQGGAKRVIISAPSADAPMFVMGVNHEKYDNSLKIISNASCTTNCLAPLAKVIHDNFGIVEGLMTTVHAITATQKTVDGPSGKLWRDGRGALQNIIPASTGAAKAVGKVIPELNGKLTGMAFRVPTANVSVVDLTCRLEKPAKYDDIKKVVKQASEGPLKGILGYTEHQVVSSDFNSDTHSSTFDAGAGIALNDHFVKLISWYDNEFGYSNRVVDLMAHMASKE

[3] = biological target: T2, Tyrosine-protein phosphatase non-receptor type 7 (Homo sapiens, UniProt P35236); format: functional
T2 sequence (P35236 whole entry): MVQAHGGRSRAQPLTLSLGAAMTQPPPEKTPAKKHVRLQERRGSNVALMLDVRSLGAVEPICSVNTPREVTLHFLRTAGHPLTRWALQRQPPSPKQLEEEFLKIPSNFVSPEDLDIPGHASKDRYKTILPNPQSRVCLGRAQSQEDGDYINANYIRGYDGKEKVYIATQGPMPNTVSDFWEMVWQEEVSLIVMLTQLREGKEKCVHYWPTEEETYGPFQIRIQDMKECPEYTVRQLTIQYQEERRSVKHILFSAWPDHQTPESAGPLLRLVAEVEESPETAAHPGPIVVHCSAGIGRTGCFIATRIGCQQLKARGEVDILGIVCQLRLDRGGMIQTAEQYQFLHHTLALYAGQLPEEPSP

[4] = biological target: T1, Dual specificity protein phosphatase 6
[5] = biological target: Delta-type opioid receptor (Homo sapiens, UniProt P41143); experiment: Counterscreen for agonists of heterodimerization of the mu 1 (OPRM1) and delta 1 (OPRD1) opioid receptors: Luminescence-based cell-based high throughput dose response assay to identify agonists of OPRD1 homodimerization. [Related pubchem assays (depositor defined):AID504326, AID504355, AID504692, AID504904, AID504905]; format: functional
Delta-type opioid receptor, sequence (P41143 whole entry): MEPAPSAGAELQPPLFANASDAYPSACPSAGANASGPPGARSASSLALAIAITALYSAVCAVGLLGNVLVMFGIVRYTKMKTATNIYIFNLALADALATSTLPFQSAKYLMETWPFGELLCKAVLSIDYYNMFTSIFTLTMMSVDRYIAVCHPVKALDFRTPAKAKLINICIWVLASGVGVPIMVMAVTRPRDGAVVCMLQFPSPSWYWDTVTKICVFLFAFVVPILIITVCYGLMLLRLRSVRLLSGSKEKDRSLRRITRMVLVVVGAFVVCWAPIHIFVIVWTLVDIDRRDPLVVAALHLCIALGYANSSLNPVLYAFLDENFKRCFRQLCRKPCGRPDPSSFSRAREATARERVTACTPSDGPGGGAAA

Mu-type opioid receptor = Mu-type opioid receptor (Homo sapiens, UniProt P35372); experiment: Counterscreen for agonists of heterodimerization of the mu 1 (OPRM1) and delta 1 (OPRD1) opioid receptors: Luminescence-based cell-based high throughput dose response assay to identify agonists of OPRM1 homodimerization.; format: functional;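 further: U2OS cells expressing OPRM1 and beta-arrestin as split beta-galactosidase partners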
Mu-type opioid receptor, sequence (P35372 whole entry): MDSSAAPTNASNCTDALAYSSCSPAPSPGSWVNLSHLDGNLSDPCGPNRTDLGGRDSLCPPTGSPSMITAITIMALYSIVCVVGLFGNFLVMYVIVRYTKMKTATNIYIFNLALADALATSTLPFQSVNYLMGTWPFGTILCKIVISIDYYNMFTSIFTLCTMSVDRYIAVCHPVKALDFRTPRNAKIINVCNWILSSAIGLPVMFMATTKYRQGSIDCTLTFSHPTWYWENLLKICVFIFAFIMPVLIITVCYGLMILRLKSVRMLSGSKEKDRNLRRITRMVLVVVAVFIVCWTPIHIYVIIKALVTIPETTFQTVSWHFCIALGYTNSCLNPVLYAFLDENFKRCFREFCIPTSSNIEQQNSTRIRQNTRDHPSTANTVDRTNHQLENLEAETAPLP

[6] = biological target: 5-hydroxytryptamine receptor 5A (Homo sapiens, UniProt P47898); experiment: Counterscreen for agonists of OPRM1-OPRD1 heterodimerization: luminescence-based cell-based high throughput dose response assay to identify agonists of 5-hydroxytryptamine (serotonin) 5A receptor (HTR5A). [Related pubchem assays (depositor defined):AID504326, AID504355, AID504692, AID504904, AID504905]; format: functional
5-hydroxytryptamine receptor 5A, sequence (P47898 whole entry): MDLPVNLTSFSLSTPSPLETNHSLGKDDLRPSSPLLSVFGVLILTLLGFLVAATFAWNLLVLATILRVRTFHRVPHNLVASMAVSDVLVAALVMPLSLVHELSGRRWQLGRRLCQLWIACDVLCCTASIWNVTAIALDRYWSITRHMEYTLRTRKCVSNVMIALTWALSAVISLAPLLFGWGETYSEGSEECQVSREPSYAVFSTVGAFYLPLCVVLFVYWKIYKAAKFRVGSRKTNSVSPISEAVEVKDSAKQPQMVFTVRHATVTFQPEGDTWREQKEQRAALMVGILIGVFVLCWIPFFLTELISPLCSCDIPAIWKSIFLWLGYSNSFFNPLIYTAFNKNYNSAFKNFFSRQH

[7] = non-specific cell cytotoxicity, dose response, cytotoxicity control for PAX8 inhibitor project, plate reader, dry powder samples (AID 743021); format: functional, cell-based

Structure (SMILES) | AC50 (Escherichia coli) | EC50 [5] | EC50 (Mu-type opioid receptor) | EC50 [6] | further results
CC(C)OCC(O)CN1CCN(CC(O)COc2ccc3c(c2)OCO3)CC1 (stereo not drawn) | 62.7 µM (active) |  |  |  | 
COc1cc(Cl)ccc1OCc1cc(C(=O)NCC(C)(C)N2CCOCC2)no1 | 33.9 µM (active) |  |  |  | 
CCCn1c(=O)nc(NCCc2ccccc2)[nH]c1=O |  |  |  |  | IC50 [1]: > 100 µM (inactive); IC50 [2]: > 100 µM (not active); IC50 [3]: > 100 µM (not active); IC50 [4]: > 100 µM (inactive)
COc1ccc(C2Nc3ccccc3C(=O)N2c2ccc(F)cc2)cc1CSc1ccccn1 (stereo not drawn) |  | > 30.8 µM (inactive) | > 92.4 µM (inactive) | > 92.4 µM (inactive) | AC50 [7]: 48.8 µM (active)
CCOC(=O)c1c(C)[nH]c(C(=O)OC/C(O)=C(\C#N)c2nc3ccccc3[nH]2)c1C |  | > 92.5 µM (inactive) | > 92.5 µM (inactive) | > 92.5 µM (inactive) | 
